The values that follow come from patent US7795332B2, “Method of removing fluorinated carboxylic acid from aqueous liquid” (priority 2005, dated 2010).

The series can be described thus: Determination of bio-accumulation: urinary clearance pharmacokinetic study in rats. The note with it: for T½: renal elimination half-life, urine by fluorine NMR, exponential curve fitting; for Compound-related Effects: 73 micro Moles per kg oral gavage, clinical signs and gross necropsy 96 hours post-dose.
The mark [1] stands for this setting: recovery of administered amount in urine after 96 h, 73 micro Moles per kg, oral gavage.
The mark [2] stands for this setting: 73 micro Moles per kg, oral gavage.
The mark [3] stands for this setting: no parent compound in urine, based on elimination of the major metabolite C3F7-O-CHFCOO-, 73 micro Moles per kg, oral gavage.

Marks after values point to notes of the source that are not given here.

As for `N.O=C(O)C(F)(F)C(F)(F)OC(F)(F)C(F)(F)C(F)(F)F` [Compound 8, C3F7—O—CF2—CF2—COONH4], under setting [1], the “% Recovery (96 h)” value is listed as 82%. Further, under setting [2], the “T½” value was 12 h.
Consider `N.O=C(O)C(F)(F)OC(F)(F)C(F)(F)C(F)(F)OC(F)(F)F` [Compound 4, CF3—(OCF2)3—OCF2—COONH4], for which the “% Recovery (96 h)” value under setting [1] is on record as 50%.
`N.O=C(O)COC(F)(F)C(F)OC(F)(F)C(F)(F)C(F)(F)F` (stereo not shown) [Compound 16, C3F7—O—CFH—CF2—O—CH2—COONH4]: under setting [3], the “% Recovery (96 h)” value was 65* % and the “T½ (h)” value is reported as 13* h.
Turning to `N.O=C(O)C(F)(F)C(F)(F)OC(F)(F)F` [Compound 6, CF3—O—CF2—CF2—COONH4], under setting [1], the “% Recovery (96 h)” value was found to be 100%. Also, the “T½” value under setting [2] is 11 h.
Regarding `N.O=C(O)C(F)(F)C(F)(F)C(F)(F)C(F)(F)C(F)(F)C(F)(F)C(F)(F)F` [Compound C-1, C7F15COONH4, reference compound], the “Compound-related Effects” value is reported as “Hepatomegaly”. Besides, under setting [1], the “% Recovery (96 h)” value came to 6%. Besides, under setting [2], the “T½” value is given as approximately 550 h.
As to `N.O=C(O)C(F)OC(F)(F)C(F)(F)C(F)(F)OC(F)(F)F` (stereo not shown) [Compound 12, CF3—O—CF2—CF2—CF2—O—CHF—COONH4], under setting [1], the “% Recovery (96 h)” value is given as 95%. Under setting [2], the “T½” value came to 11 h.
For the compound `N.O=C(O)C(F)(F)OC(F)(F)C(F)(F)C(F)(F)OC(F)(F)F` [Compound 1, CF3—O—(CF2)3—O—CF2—COONH4], the “% Recovery (96 h)” value under setting [1] was 73%.
Consider `N.O=C(O)C(F)(F)C(F)OC(F)(F)C(F)(F)C(F)(F)F` (stereo not shown) [Compound 13, C3F7—O—CFH—CF2COONH4], for which the “% Recovery (96 h)” value under setting [1] is on record as 94%. In addition, under setting [2], the “T½” value amounted to 11 h.
In the case of `N.O=C(O)C(F)(F)OC(F)(F)OC(F)(F)F` [Compound 2, CF3—OCF2—O—CF2—COONH4], the “% Recovery (96 h)” value under setting [1] amounted to 96%. In addition, the “T½” value under setting [2] was 12 h.
For `N.O=C(O)C(F)(F)OC(F)(F)C(F)(OC(F)(F)C(F)(F)C(F)(F)F)C(F)(F)F` (stereo not shown) [Compound C-3, CF3CF2CF2OCF(CF3)CF2OCF2COONH4, reference compound], the “Compound-related Effects” value is recorded as “Hepatomegaly”. Further, the “% Recovery (96 h)” value under setting [1] is on record as 5%. Also, the “T½” value under setting [2] was 95 h.
For `N.O=C(O)C(F)(F)C(F)(F)OC(F)(F)C(F)(F)C(F)(F)C(F)(F)F` [Compound 9, C4F9—O—CF2—CF2—COONH4], the “Compound-related Effects” value is given as “Hepatomegaly”. Moreover, the “% Recovery (96 h)” value under setting [1] worked out at 42%. Further, the “T½” value under setting [2] was determined as 31 h.
Consider `N.O=C(O)C(F)(F)C(F)(F)OC(F)(F)C(F)(F)F` [Compound 7, C2F5—O—CF2—CF2—COONH4], for which, under setting [1], the “% Recovery (96 h)” value worked out at 100%. Moreover, the “T½” value under setting [2] is 10 h.
With `N.O=C(O)C(F)(F)OC(F)(F)OC(F)(F)OC(F)(F)F` [Compound 3, CF3—OCF2—OCF2—OCF2—COONH4], the “% Recovery (96 h)” value under setting [1] turned out to be 100%. The “T½” value under setting [2] came to 12 h.
Take `N.O=C(O)C(F)(F)C(F)(F)C(F)(F)C(F)(F)C(F)(F)OC(F)C(F)(F)F` (stereo not shown) [Compound 14, CF3—CFH—O—(CF2)5—COONH4]: the “Compound-related Effects” value is listed as “Hepatomegaly”. Moreover, the “% Recovery (96 h)” value under setting [1] is recorded as 32%. Besides, the “T½” value under setting [2] is on record as 24 h.
With `N.O=C(O)C(F)(F)C(F)OC(F)(F)C(F)(F)C(F)(F)OC(F)(F)F` (stereo not shown) [Compound 11, CF3—O—CF2—CF2—CF2—O—CHF—CF2—COONH4], the “% Recovery (96 h)” value under setting [1] was found to be 84%. In addition, the “T½” value under setting [2] came out at 12 h.
For `N.O=C(O)C(F)(F)C(F)(F)C(F)(F)OC(F)C(F)(F)F` (stereo not shown) [Compound 15, CF3—CFH—O—(CF2)3—COONH4], the “% Recovery (96 h)” value under setting [1] is on record as 95%. Besides, the “T½” value under setting [2] came to 8 h.
